*1 amine or outer side, *2 acyl side, *3 side chain or, on linkers, in order; H or OH if unused. Where a SMILES comes first, the peptide text is derived from it. Bridges are numbered along the chain shown (N, C = ends). Roman numbers before positions name the chains, in order. Side-chain parts run from the residue outwards. [ ]: non-standard residue; d: D form. The star is where a group is joined. C18 diacid = O=C(O)CCCCCCCCCCCCCCCCC(=O)*; γGlu = O=C(O)[C@H](CCC(=O)[*:2])N[*:1]; Desaminohistidyl = O=C(CCc1c[nH]cn1)*; Ac4c = NC1(C(=O)O)CCC1; Aib = CC(C)(N)C(=O)O

In one data set the target is T1, human GLP-1 receptor (Homo sapiens, UniProt P43220).
T1 construct: expressed in transfected cells; host or cells: membranes of BHK cells, parent line BHKTS13, clone FCW467-12A
T1 sequence (P43220 24-463): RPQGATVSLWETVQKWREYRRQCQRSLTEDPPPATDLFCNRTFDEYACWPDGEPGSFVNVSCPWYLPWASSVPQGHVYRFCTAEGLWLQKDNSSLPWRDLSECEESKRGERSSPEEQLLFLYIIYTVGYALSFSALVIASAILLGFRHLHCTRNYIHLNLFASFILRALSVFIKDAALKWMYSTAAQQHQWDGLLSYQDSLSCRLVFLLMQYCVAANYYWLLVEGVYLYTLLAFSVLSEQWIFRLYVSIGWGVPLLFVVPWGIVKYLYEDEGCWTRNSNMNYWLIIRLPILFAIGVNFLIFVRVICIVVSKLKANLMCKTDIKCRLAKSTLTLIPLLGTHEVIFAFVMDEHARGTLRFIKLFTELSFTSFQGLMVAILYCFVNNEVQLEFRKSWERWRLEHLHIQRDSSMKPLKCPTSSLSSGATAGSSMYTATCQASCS
In words: Assay (I)(a): GLP-1 receptor potency, CRE luciferase reporter gene assay in BHK cells. The class given is cell-based. Conditions: BHK cells expressing human GLP-1 receptor, read-out: EC50 GLP-1R. Summed up: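 BHK cells (clone FCW467-12A/KZ10-1), 5×10EE3/well, exposed 3 h at 37° C to compound at 1×10EE-13 to 1×10EE-6 M final in medium with 2% ovalbumin and 0.2% Pluronic F-68. Luciferase luminescence read; EC50 (pM) from four-parameter fit.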
(In a reporter assay the amount or activity of a reporter protein is the signal.)

Data set [1] in a line: Assay (V): chemical stability assessment by RP-UPLC. Particulars: 14 days at 37° C. in phosphate buffer (pH 7.3). The class given is physicochemical. The method, boiled down:
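Lyophilized peptide dissolved in 8 mM phosphate pH 8.6, adjusted to pH 7.3, final 333 μM, held 14 days at 5° C and 37° C. Purity is main-peak area % by RP-UPLC with UV detection at 215 nm. Degradation is the 5° C minus 37° C purity difference divided by the 5° C purity.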

Consider `CC[C@H](C)[C@H](NC(=O)[C@H](Cc1ccccc1)NC(=O)[C@H](CCC(=O)O)NC(=O)[C@H](CCCNC(=N)N)NC(=O)[C@H](C)NC(=O)[C@H](C)NC(=O)[C@H](CCC(N)=O)NC(=O)[C@H](CCC(=O)O)NC(=O)[C@H](CCC(=O)O)NC(=O)[C@H](CC(C)C)NC(=O)[C@H](Cc1ccc(O)cc1)NC(=O)[C@H](CCCCN)NC(=O)[C@H](CO)NC(=O)[C@@H](NC(=O)[C@H](CC(=O)O)NC(=O)[C@H](CO)NC(=O)[C@@H](NC(=O)[C@H](Cc1ccccc1)NC(=O)[C@@H](NC(=O)CNC(=O)[C@H](Cc1c[nH]cn1)NC(=O)C(C)(C)NC(=O)CCc1c[nH]cn1)[C@@H](C)O)[C@@H](C)O)C(C)C)C(=O)N[C@@H](C)C(=O)N[C@@H](Cc1c[nH]c2ccccc12)C(=O)N[C@@H](CC(C)C)C(=O)N[C@@H](CC(C)C)C(=O)N[C@@H](CCCCNC(=O)CNC(=O)[C@H](CO)NC(=O)CC[C@H](NC(=O)CC[C@H](NC(=O)CCCCCCCCCCCCCCCCC(=O)O)C(=O)O)C(=O)O)C(=O)N[C@H](C(N)=O)[C@@H](C)O` [Example 4, N^ε34-[2-[[(2S)-2-[[(4S)-4-carboxy-4-[[(4S)-4-carboxy-4-(17-carboxyheptadecanoylamino)butanoyl]amino]butanoyl]amino]-3-hydroxypropanoyl]amino]acetyl]-[Imp7,Aib8,His9,Lys18,Glu22,Arg26,Leu33,Thr35]-GLP-1-(7-35)-peptide amide] (Desaminohistidyl-[Aib]HGTFTSDVSKYLEEQAAREFIAWLLK([Gly-Ser-γGlu-γGlu-C18 diacid])T-NH2), for which the half-maximal effective concentration (EC50) (as a rule, the concentration that produces a half-maximal response) on human GLP-1 receptor was 7 pM. Further, the “Chemical stability: Chemical degradation over 14 days at 37° C.” value in data set [1] is 0.2%.
The corresponding values for `CC[C@H](C)[C@H](NC(=O)[C@H](Cc1ccccc1)NC(=O)[C@H](CCC(=O)O)NC(=O)[C@H](CCCNC(=N)N)NC(=O)[C@H](C)NC(=O)[C@H](C)NC(=O)[C@H](CCC(N)=O)NC(=O)[C@H](CCC(=O)O)NC(=O)[C@H](CCC(=O)O)NC(=O)[C@H](CC(C)C)NC(=O)[C@H](Cc1ccc(O)cc1)NC(=O)[C@H](CCCCN)NC(=O)[C@H](CO)NC(=O)[C@@H](NC(=O)[C@H](CC(=O)O)NC(=O)[C@H](CO)NC(=O)[C@@H](NC(=O)[C@H](Cc1ccccc1)NC(=O)[C@@H](NC(=O)CNC(=O)[C@H](Cc1c[nH]cn1)NC(=O)C(C)(C)NC(=O)CCc1c[nH]cn1)[C@@H](C)O)[C@@H](C)O)C(C)C)C(=O)N[C@@H](C)C(=O)N[C@@H](Cc1c[nH]c2ccccc12)C(=O)N[C@@H](CC(C)C)C(=O)N[C@@H](CC(C)C)C(=O)N[C@@H](CCCCNC(=O)CC[C@H](NC(=O)CC[C@H](NC(=O)CC[C@H](NC(=O)CC[C@H](NC(=O)CCCCCCCCCCCCCCCCC(=O)O)C(=O)O)C(=O)O)C(=O)O)C(=O)O)C(=O)N[C@H](C(N)=O)[C@@H](C)O` [Example 6, N^ε34-[(4S)-4-carboxy-4-[[(4S)-4-carboxy-4-[[(4S)-4-carboxy-4-[[(4S)-4-carboxy-4-(17-carboxyheptadecanoylamino)butanoyl]amino]butanoyl]amino]butanoyl]amino]butanoyl]-[Imp7,Aib8,His9,Lys18,Glu22,Arg26,Leu33,Thr35]-GLP-1-(7-35)-peptide amide] (Desaminohistidyl-[Aib]HGTFTSDVSKYLEEQAAREFIAWLLK([γGlu-γGlu-γGlu-γGlu-C18 diacid])T-NH2) are 7 pM and 0.1%.
The matching figures for `CC[C@H](C)[C@H](NC(=O)[C@H](Cc1ccccc1)NC(=O)[C@H](CCC(=O)O)NC(=O)[C@H](CCCNC(=N)N)NC(=O)[C@H](C)NC(=O)[C@H](C)NC(=O)[C@H](CCC(N)=O)NC(=O)[C@H](CCC(=O)O)NC(=O)[C@H](CCC(=O)O)NC(=O)[C@H](CC(C)C)NC(=O)[C@H](Cc1ccc(O)cc1)NC(=O)[C@H](CCCNC(=N)N)NC(=O)[C@H](CO)NC(=O)[C@@H](NC(=O)[C@H](CC(=O)O)NC(=O)[C@H](CO)NC(=O)[C@@H](NC(=O)[C@H](Cc1ccccc1)NC(=O)[C@@H](NC(=O)CNC(=O)[C@H](Cc1c[nH]cn1)NC(=O)C(C)(C)NC(=O)CCc1c[nH]cn1)[C@@H](C)O)[C@@H](C)O)C(C)C)C(=O)N[C@@H](C)C(=O)N[C@@H](Cc1c[nH]c2ccccc12)C(=O)N[C@@H](CC(C)C)C(=O)N[C@@H](CC(C)C)C(=O)N[C@@H](CCCCNC(=O)CNC(=O)[C@H](CO)NC(=O)[C@H](CCC(=O)O)NC(=O)CNC(=O)[C@H](CO)NC(=O)CC[C@H](NC(=O)CC[C@H](NC(=O)CCCCCCCCCCCCCCCCC(=O)O)C(=O)O)C(=O)O)C(=O)N[C@H](C(N)=O)[C@@H](C)O` [Example 7, N^ε34-[2-[[(2S)-2-[[(2S)-4-carboxy-2-[[2-[[(2S)-2-[[(4S)-4-carboxy-4-[[(4S)-4-carboxy-4-(17-carboxyheptadecanoylamino)butanoyl]amino]butanoyl]amino]-3-hydroxypropanoyl]amino]acetyl]amino]butanoyl]amino]-3-hydroxypropanoyl]amino]acetyl]-[Imp7,Aib8,His9,Arg18,Glu22,Arg26,Leu33,Thr35]-GLP-1-(7-35)-peptide amide] (I: Desaminohistidyl-[Aib]HGTFTSDVSRYLEEQAAREFIAWLLKT-NH2 / II: {C18 diacid-γGlu-γGlu}-SGESG; amide I:27-II:C): 6 pM and 0.0%.
The corresponding values for `CC[C@H](C)[C@H](NC(=O)[C@H](Cc1ccccc1)NC(=O)[C@H](CCC(=O)O)NC(=O)[C@H](CCCNC(=N)N)NC(=O)[C@H](C)NC(=O)[C@H](C)NC(=O)[C@H](CCC(N)=O)NC(=O)[C@H](CCC(=O)O)NC(=O)[C@H](CCC(=O)O)NC(=O)[C@H](CC(C)C)NC(=O)[C@H](Cc1ccc(O)cc1)NC(=O)[C@H](CCCCN)NC(=O)[C@H](CO)NC(=O)[C@@H](NC(=O)[C@H](CC(=O)O)NC(=O)[C@H](CO)NC(=O)[C@@H](NC(=O)[C@H](Cc1ccccc1)NC(=O)[C@@H](NC(=O)CNC(=O)[C@H](Cc1c[nH]cn1)NC(=O)C1(NC(=O)CCc2c[nH]cn2)CCC1)[C@@H](C)O)[C@@H](C)O)C(C)C)C(=O)N[C@@H](C)C(=O)N[C@@H](Cc1c[nH]c2ccccc12)C(=O)N[C@@H](CC(C)C)C(=O)N[C@@H](CC(C)C)C(=O)N[C@@H](CCCCNC(=O)CNC(=O)[C@H](CO)NC(=O)[C@H](CCC(=O)O)NC(=O)CNC(=O)[C@H](CO)NC(=O)CC[C@H](NC(=O)CC[C@H](NC(=O)CCCCCCCCCCCCCCCCC(=O)O)C(=O)O)C(=O)O)C(=O)N[C@H](C(N)=O)[C@@H](C)O` [Example 9, N^ε34-[2-[[(2S)-2-[[(2S)-4-carboxy-2-[[2-[[(2S)-2-[[(4S)-4-carboxy-4-[[(4S)-4-carboxy-4-(17-carboxyheptadecanoylamino)butanoyl]amino]butanoyl]amino]-3-hydroxypropanoyl]amino]acetyl]amino]butanoyl]amino]-3-hydroxypropanoyl]amino]acetyl]-[Imp7,Acb8,His9,Lys18,Glu22,Arg26,Leu33,Thr35]-GLP-1-(7-35)-peptide amide] (I: Desaminohistidyl-[Ac4c]HGTFTSDVSKYLEEQAAREFIAWLLKT-NH2 / II: {C18 diacid-γGlu-γGlu}-SGESG; amide I:27-II:C) are 5 pM and 0.2%.

For the origin of these results see patent publication US9988430B2, “Stable GLP-1 based GLP-1/glucagon receptor co-agonists” (Novo Nordisk A/S, priority 2014, dated 2018).
